Key:
PC12 cells [1] = assay: Membrane resistance and membrane potential after light irradiation (patch clamp); type: cell-based, rat
Procedure: Since minute membrane defects must be monitored at a cell level for a period of time in the order of seconds to several minutes including a recovery process, the patch clamp method, which is used for electrophysiological experiments, was used to measure the potential between the cell membranes or ion current transmitted through the cell membrane.
The photosensitizer BAT was dispersed in a HEPES (25 mM, pH 7.4) buffer.
The cells were incubated in a culture medium for electrophysiological experiments at roam temperature. The culture medium used for this experiment was composed of 124 mM of NaCl, 5 mM of KCl, 2.4 mM of CaCl2.2H2O, 1.3 mM of MgSO4.7H2O, and 10 mM of glucose, with a final pH adjusted to 7.4 by addition of NaOH. To prevent the averse effects of evaporation, the culture medium for electrophysiological experiments was replaced with a new at the intervals of 40 minutes at maximum.
The BAT was added so as to have a final Concentration of 49 μM. The quantity of light applied was set at three levels: 0.47 J/cm^2, 0.94 J/cm^2, and 1.57 J/cm^2.
A liquid in the patch electrode was composed of 132 mM of KCl, 8 mM of NaCl, 2 mM of MgCl2, 30 mM of HEPES, 4 mM of Na2ATP, 0.3 mM of GTP, and 0.5 mM of EGTA, with a final pH adjusted to 7.3 by addition of NaOH.
Since a zoom function allows light to be concentrated in an area smaller than a normal area, the amount of light per unit area increases in proportion to the square of a zoom magnification. The excitation light is transmitted through the plastic of the collagen coat dish before actually reaching the cell, so that a decrease in light quantity must actually be taken into consideration.
In irradiating the cell with the excitation light, a TTL signal operating in connection with an electrophysiological record is transmitted to the light source as required to synchronize the light irradiation with electric measurements.
Before starting the electrophysiological experiments, the cell membrane potential had been maintained between −80 and −60 mV.
The cell membrane potential measuring amplifier was Axpopatch 1-D (Axon Instruments). The membrane resistance was calculated from a change in membrane potential occurring when a 1-Hz rectangular-wave overpolarization current flowed through the membrane for 350 milliseconds. The amount of, current supplied (0.1 or 0.15 nA) was selected so that the change in membrane potential would not exceed 30 mV when power was supplied. Under these experimental conditions, the PC12 cell generated no action potential. Measured potential and current values were analyzed using Axoscope ver. 1.1 (manufactured by Axon Instruments).
In FIG. 9, the axis of abscissa indicates an elapsed time (unit: second). The axis of ordinate indicates the resistance of the cell membrane (unit: %) in the upper part and the potential thereof in the lower part, both values being normalized by setting corresponding values prior to irradiation equal to […]. The membrane resistance reflects the ion transmission inhibiting capability, and the membrane potential reflects the active ion transporting capability of the membrane effected by activities of various intermembrane ion transporting systems as well as the ion transmission inhibiting capability.
A microinjection device was connected to a minute glass pipette held in a micromanipulator, and the minute glass pipette was filled with a solution with the photosensitizer BAT dispersed therein (BAT concentration: 2 mM, water solvent). The glass pipette was located in such a manner that its tip was connected to the patch electrode and located within 200 μm from a cell for which the membrane potential and resistance were to be measured.

PC12 cells [2] = assay: Cell survival rate after injection process (LY retaining rate); type: cell-based, rat
Procedure: A cell survival rate after the injection process was compared between cells subjected to the normal microinjection process using the physical shearing force and cells subjected to the photosensitizing microinjection.
The LY was injected into the cell by means of microinjection. In a dead cell with its cell membrane collapsed, the LY disperses quickly to lose its color [Cell, 14, 741-759 (1987)]. Thus, using a rate at which the cell subjected to the injection process holds the LY, as an index indicating the cell survival rate, the survival rates 3 and 6 days after the injection process were compared to each other.
In FIG. 13, the axis of abscissa indicates the number of days passing after the injection process (unit: day), while the axis of ordinate indicates the survival rate (units %).

Water solubility = type: physicochemical
Description: A thiophen oligomer having an aminomethyl group at a terminal thereof has a higher water solubility than any other derivative of the same kind due to this terminal aminomethyl group. The water solubility varies depending on how the aminomethyl group is released. […] By irrigating the cell with the BAT-dispersed solution under the above pH condition, this molecule can be easily added to a surface of the cell. The hydrophilic property of the BAT molecule is new and is absent from the other modified thiophen oligomers including an a terthienyl derivative as well as other molecules designed as conductive high-molecular monomers.

PC12 cells [3] = assay: Microinjection success rate (Lucifer Yellow injection) using photosensitized membrane destruction; type: cell-based, rat; conditions: BAT-containing injection liquid, no light applied, capillary kept in contact with cell, n=30
Procedure: To determine whether the microinjection process was successful, the water-soluble fluorescent pigment Lucifer Yellow CH (LY)was added to an injection liquid. […] Evaluation was made to determine how the success rate of injection of the LY into the cell varied depending on the presence of the photosesirizer BAT in the injection liquid or the presence of application of the BAT exciting light.
To make the microinjection successful, a glass capillary having a diameter of several hundred nanometers at a tip opening thereof must be brought into contact with the cell at a high speed to physically instantaneously penetrate and punch the cell membrane. In the experiments, an electric micromanipulator (manufactured by Eppendorf; Micromanipulator 5171) and an electric injector (manufactured by Eppendorf; Transjector 5246), which can both operate under the control of a program, could be used to set a speed at which the capillary contacted with the membrane, at an arbitrary value. In addition, the injection capillary was a commercially available product (manufactured by Eppendorf; FemtoTips) mass-produced for the above apparatuses. […]

[4] = B: 4.94 J/cm^2 light, BAT 49 μM, several seconds after irradiation

Compound	cell membrane resistance and membrane potential after light irradiation (PC12 cells [1]; A: 0.47 J/cm^2 light, BAT 49 μM, 363-nm argon ion laser)	cell membrane resistance after light irradiation (PC12 cells [1]; [4])	membrane potential after light irradiation (PC12 cells [1]; [4])	cell membrane potential after laser beam (PC12 cells [1]; BAT 2 mM dispersed solution ejected from minute glass pipette onto target cell, laser as in Example 3)	time after light irradiation to loss of membrane resistance and potential (PC12 cells [1]; C: 1.57 J/cm^2 light, BAT 49 μM)	cell membrane resistance and membrane potential after light irradiation (PC12 cells [1]; C: 1.57 J/cm^2 light, BAT 49 μM, then remained at fixed values (irreversible))	cell survival rate (LY retention) (PC12 cells [2]; photosensitizing injection (BAT + light), three to six days after injection)	water solubility (Water solubility; acid water solution (bivalent positive charge))	water solubility (Water solubility; water solution with biologically suitable pH range (near 7.4), univalent positive charge type)	injection success rate (PC12 cells [3]) [%]	survival rate (PC12 cells [2]; control examples: normal injection, 3 days after the injection) [%]
Cl.Cl.NCc1ccc(-c2ccc(-c3ccc(CN)s3)s2)s1 [BAT, 5′5″-bis(aminomethyl)-2,2′:5′2″-terthiophene dihydrochloride]	varied slightly but not significantly	decreased	depolarized	depolarized	about 8 seconds	lost	about 90%	easily soluble	maintains a high water solubility	13	–
NNC(=O)NN1C(=O)c2cc(S(=O)(=O)O)cc3c(N)c(S(=O)(=O)O)cc(c23)C1=O [LY, Lucifer Yellow CH, reference compound]	–	–	–	–	–	–	–	–	–	–	17

— patent publication US6537800B1, “Apparatus for automatically measuring minute membrane potential” (Center for Advanced Science and Technology Incubation, Ltd., priority 1998, dated 2003)
